Data: patent publication EP1595878A1, “INDOLE DERIVATIVES WITH APOPTOSIS INDUCING ACTIVITY” (Zentaris GmbH, priority 2004, dated 2005)
≈ marks a conversion by molar mass, not a printed value. Where two headings read alike, the source gives them in different places.

Key:
Rindertubulin = experiment: Inhibition of tubulin polymerisation in vitro; type: biochemical, Rind; conditions: for Hemmwirkung auf die Polymerisation von Tubulin: verbal summary of Table 3; for EC50: cells print µM, head µg/ml, read-out: Hemmung der Tubulin-Polymerisation, EC50
Source text: Die Substanzen 1, 4, 9, 11, 12, 13 und 15 wurden in einem in-vitro Test auf Hemmung der Polymerisation von Rindertubulin getestet (D.M. Bollag et al. Cancer Res. 1995, 55, 2325-2333). In diesem Test wird durch Zyklen von Polymerisation und Depolymerisation aufgereinigtes Tubulin eingesetzt, welches durch Zugabe von GTP und Erwärmung zur Polymerisation gebracht wird. In Tabelle 3 sind die EC50 Werte der Polymerisationshemmung von Tubulin mit 30% assoziierten Proteinen (MAPs) angegeben.

Mamma, MAXF857 = type: in vivo, Mäuse; conditions: 40 mg/kg p.o.; for Todesfällen: dead animals / total
Source text: Die in vivo Aktivität und Verträglichkeit der erfindungsgemäßen Verbindung 2 wurde im Vergleich zu der Substanz 10 in einem weiteren humanen Xenograft-Modell (Mamma, MAXF857) überprüft. Die Ergebnisse werden in der nächsten Tabelle gezeigt: Effect of 2 and 10 on the Mammary Cancer MAXF857 Tabelle 7: […]

Melanom, MEXF462 = type: in vivo, Mäuse; conditions: for Todesfällen: dead animals / total
Source text: Die in vivo Aktivität und Verträglichkeit der erfindungsgemäßen Verbindung 2 wurde im Vergleich zu den Substanzen 10 und 14 in einem humanen Xenograft-Modell (Melanom, MEXF462) überprüft. Die Ergebnisse sind in der nachfolgenden Tabelle 6 zusammengefasst: in vivo Aktivitäten von Verbindung 2, 10 and 14 (Melanom; MEXF462) Tabelle 6: […]

KB/HeLa Zellen = experiment: Cell cycle analysis (G2/M arrest); type: cell-based; conditions: Homo sapiens, read-out: EC50 in nM (50% cells in G2/M)
Source text: Der Zellzyklus umfasst die Entwicklung der Zelle von einer Zellgeneration zur nächsten.
Während der Ruhephase (G0) und präsynthetischen Phase (G1) besitzt die Zelle einen diploiden Chromosomensatz (2c). In der Synthesephase (S) wird die DNA-Menge durch Replikation vermehrt. Die S-Phase endet mit Erreichen der prämitotischen Phase (G2M), in der die Zelle einen reduplizierten Chromosomenbestand (4c) und verdoppelten DNA-Gehalt aufweist. In der nachfolgenden, kurzdauernden Mitosephase (M) kommt es zur gleichmäßigen Aufteilung der reduplizierten Chromosomen auf zwei Tochterzellen, die dann jeweils wieder einen diploiden DNA Gehalt zeigen und sich in der G01-Phase befinden, so daß der Zellzyklus neu beginnen kann.
Für die Zellzyklusanalyse wurden KB/HeLa Zellen mit den Testsubstanzen in unterschiedlichen Konzentrationen (0.1-1000 nM) 24 Stunden bei 37°C behandelt.
Der prozentuale Anteil der in der G2/M Phase des Zellzyklus arrettierten Zellen nach Behandlung mit Referenz- oder ausgewählten Testsubstanzen ist in der nachfolgenden Tabelle 4 dargestellt. Die Ergebnisse wurden mit einer speziellen Analysesoftware (ModFit™) ausgewertet.

[1] = system: ovariale Adenokarzinomzelllinie SKOV-3 (ATCC HTB77); experiment: XTT proliferation assay (cytotoxicity test), SKOV-3; type: cell-based; conditions: Homo sapiens, SK-OV-3; SKOV3; read-out: XTT Proliferationsassay, EC50
Source text: (§1) Die Substanzen 1, 2, 4, 9, 11, 12 , 13 und 15 wurden in einem Proliferationstest an etablierten Tumorzelllinien auf ihre anti-proliferative Aktivität hin untersucht (D.A. Scuderio et al. Cancer Res. 1988, 48, 4827-4833). Der verwendete Test bestimmt die zelluläre Dehydrogenase-Aktivität und ermöglicht eine Bestimmung der Zellvitalität und indirekt der Zellzahl. Bei den verwendeten Zelllinien handelt es sich um die humane Cervixkarzinom Zelllinie KB/HeLa (ATCC CCL17), die ovariale Adenokarzinomzelllinie SKOV-3 (ATCC HTB77), die humane Glioblastom Zelllinie SF-268 (NCI 503138) und die Lungenkarzinom Zelllinie NCI-H460 (NCI 503473).

[2] = system: humane Glioblastom Zelllinie SF-268 (NCI 503138); experiment: XTT proliferation assay (cytotoxicity test), SF-268; type: cell-based; conditions: Homo sapiens, read-out: XTT Proliferationsassay, EC50
Source text: as §1

[3] = system: humane Cervixkarzinom Zelllinie KB/HeLa (ATCC CCL17); experiment: XTT proliferation assay (cytotoxicity test), KB/HeLa; type: cell-based; conditions: Homo sapiens, read-out: XTT Proliferationsassay, EC50
Source text: as §1

[4] = system: Lungenkarzinom Zelllinie NCI-H460 (NCI 503473); experiment: XTT proliferation assay (cytotoxicity test), NCI-H460; type: cell-based; conditions: Homo sapiens, NCl-H460, read-out: XTT Proliferationsassay, EC50
Source text: as §1

human Topoisomerase II = human Topoisomerase II (Homo sapiens, UniProt P11388); experiment: pRYG relaxation assay for topoisomerase II activity; type: biochemical; conditions: compound 1 at 100, 31.6 and 10 µM; reference compounds at 316 and 100 µM
Experimental: Mit diesem Relaxationsassay konnte zusätzlich die inhibitorische Eigenschaft der erfindungsgemäßen Verbindungen auf Topoisomerase II gezeigt werden. Die Testung der erfindungsgemäßen Verbindung 1 erfolgte hierbei bei drei unterschiedlichen Konzentrationen (100, 31.6 und 10 µM). Zum Vergleich setzte man die Referenzverbindungen m-Amsacrin, Paclitaxel (Taxol) und Vincristine bei Konzentrationen von 316 und 100µM ein.
Zu 1µL vorgelegter Testsubstanz (20fach konzentriert in 100% DMSO) werden 2µL 10x Assay Puffer, 0,5µL pRYG DNA (125ng), 0,5µL human Topoisomerase II (1 unit) und 16µL H2O pipettiert und gemischt. Die Reaktionsansätze werden in den auf 37°C vorgeheizten Heizblock gestellt und 30min bei 37°C inkubiert. Die Inkubation wird nach Zugabe von 4µL 5x Stop Puffer abgestoppt. Danach werden 10µL des Ansatzes auf ein 1,2% Agarosegel mit 0,25µg/mL Ethidiumbromid aufgetragen und 2,5h bei 100V aufgetrennt. Zum Schluß wird das Gel unter UV Anregung fotografiert (s. Figur 3). Die Quantifizierung der Inhibierung der pRYG Relaxation erfolgt mit der GelPro®Analyzer Software (s. Figur 4).

[5] = molecular target: humaner DNA-Topoisomerase II (Homo sapiens, UniProt P11388); experiment: kDNA decatenation assay for topoisomerase II activity; type: biochemical; conditions: compound 1 at 100, 31.6 and 10 µM; reference compounds at 100 µM
Experimental: In diesem von P. Arimondo (Anti-Cancer Drug Design 2000, 15 (6), 413-421) beschriebenen Assay wird kDNA mit humaner DNA-Topoisomerase II in Abwesenheit oder Gegenwart der Testverbindungen behandelt. Die Testung der erfindungsgemäßen Verbindung 1 erfolgte hierbei bei drei unterschiedlichen Konzentrationen (100, 31.6 und 10 µM). Zum Vergleich setzte man eine Positivkontrolle und die Referenzverbindungen m-Amsacrin (m-Amsa), Paclitaxel (Taxol) und Vincristine bei einer jeweiligen Konzentration von 100µM ein.
Zu 1µL vorgelegter Testsubstanz (20fach konzentriert in 100% DMSO) werden 2µL 10x Assay Puffer, 1µL kDNA (200ng), 0,5µL human Topoisomerase II (1unit) und 15,5µL H2O pipettiert und gemischt.
Die Reaktionsansätze werden in den auf 37°C vorgeheizten Heizblock gestellt und 10min bei 37°C inkubiert. Die Inkubation wird nach Zugabe von 4µL 5x Stop Puffer gestoppt und nachfolgend die Substanz mit CIA extrahiert. Danach werden 20µL des Überstandes auf ein 1 % Agarosegel mit 0,25µg/mL Ethidiumbromid aufgetragen und 1 h bei 100V aufgetrennt. Zum Schluss wird das Gel unter UV-Anregung fotografiert (s. Figur 1). Die Quantifizierung der Inhibierung der Decatenation von kDNA erfolgt mit der GelPro®Analyzer Software (s. Figur 2)

LT12/mdr = experiment: XTT proliferation assay, resistant LT12/mdr; type: cell-based; conditions: Rattus norvegicus, LT12; LT12mdr; read-out: XTT Proliferationsassay, EC50
Source text: as §1, with “503473). Tabelle 1:” for “503473).”
(§2) Zur weiteren Charakterisierung wurden die Substanzen 1, 2, 4 und 11 gegenüber multi drug resistenten Zelllinien im Vergleich zu den nicht-resistenten Wildtypzelllinien untersucht.
(§3) Bei den untersuchten Zelllinien handelt es sich um die murine L1210, die akute myeloische Leukaemie Zelllinie LT12 und um die resistenten Linien L1210/mdr und LT12/mdr. Außerdem wurden die murine P388 Zelllinie (methyl-cholanthreneinduced lymphoid neoplasm) sowie die Doxorubicin-resistente P388 als Testsysteme herangezogen.

[6] = system: Doxorubicin-resistente P388; experiment: XTT proliferation assay, doxorubicin-resistant P388; type: cell-based, murine; conditions: Mus musculus, P388; P388ADR; read-out: XTT Proliferationsassay, EC50
Source text: as §1, with “503473). Tabelle 1:” for “503473).”
as §2, §3

L1210VCR = experiment: XTT proliferation assay, resistant L1210; type: cell-based, murine; conditions: Mus musculus, L1210; L1210VCR; read-out: XTT Proliferationsassay, EC50
Source text: as §1, with “503473). Tabelle 1:” for “503473).”
as §2, §3

[7] = tubulin with 30% associated proteins (MAPs)

Sequence of human Topoisomerase II (P11388 whole entry): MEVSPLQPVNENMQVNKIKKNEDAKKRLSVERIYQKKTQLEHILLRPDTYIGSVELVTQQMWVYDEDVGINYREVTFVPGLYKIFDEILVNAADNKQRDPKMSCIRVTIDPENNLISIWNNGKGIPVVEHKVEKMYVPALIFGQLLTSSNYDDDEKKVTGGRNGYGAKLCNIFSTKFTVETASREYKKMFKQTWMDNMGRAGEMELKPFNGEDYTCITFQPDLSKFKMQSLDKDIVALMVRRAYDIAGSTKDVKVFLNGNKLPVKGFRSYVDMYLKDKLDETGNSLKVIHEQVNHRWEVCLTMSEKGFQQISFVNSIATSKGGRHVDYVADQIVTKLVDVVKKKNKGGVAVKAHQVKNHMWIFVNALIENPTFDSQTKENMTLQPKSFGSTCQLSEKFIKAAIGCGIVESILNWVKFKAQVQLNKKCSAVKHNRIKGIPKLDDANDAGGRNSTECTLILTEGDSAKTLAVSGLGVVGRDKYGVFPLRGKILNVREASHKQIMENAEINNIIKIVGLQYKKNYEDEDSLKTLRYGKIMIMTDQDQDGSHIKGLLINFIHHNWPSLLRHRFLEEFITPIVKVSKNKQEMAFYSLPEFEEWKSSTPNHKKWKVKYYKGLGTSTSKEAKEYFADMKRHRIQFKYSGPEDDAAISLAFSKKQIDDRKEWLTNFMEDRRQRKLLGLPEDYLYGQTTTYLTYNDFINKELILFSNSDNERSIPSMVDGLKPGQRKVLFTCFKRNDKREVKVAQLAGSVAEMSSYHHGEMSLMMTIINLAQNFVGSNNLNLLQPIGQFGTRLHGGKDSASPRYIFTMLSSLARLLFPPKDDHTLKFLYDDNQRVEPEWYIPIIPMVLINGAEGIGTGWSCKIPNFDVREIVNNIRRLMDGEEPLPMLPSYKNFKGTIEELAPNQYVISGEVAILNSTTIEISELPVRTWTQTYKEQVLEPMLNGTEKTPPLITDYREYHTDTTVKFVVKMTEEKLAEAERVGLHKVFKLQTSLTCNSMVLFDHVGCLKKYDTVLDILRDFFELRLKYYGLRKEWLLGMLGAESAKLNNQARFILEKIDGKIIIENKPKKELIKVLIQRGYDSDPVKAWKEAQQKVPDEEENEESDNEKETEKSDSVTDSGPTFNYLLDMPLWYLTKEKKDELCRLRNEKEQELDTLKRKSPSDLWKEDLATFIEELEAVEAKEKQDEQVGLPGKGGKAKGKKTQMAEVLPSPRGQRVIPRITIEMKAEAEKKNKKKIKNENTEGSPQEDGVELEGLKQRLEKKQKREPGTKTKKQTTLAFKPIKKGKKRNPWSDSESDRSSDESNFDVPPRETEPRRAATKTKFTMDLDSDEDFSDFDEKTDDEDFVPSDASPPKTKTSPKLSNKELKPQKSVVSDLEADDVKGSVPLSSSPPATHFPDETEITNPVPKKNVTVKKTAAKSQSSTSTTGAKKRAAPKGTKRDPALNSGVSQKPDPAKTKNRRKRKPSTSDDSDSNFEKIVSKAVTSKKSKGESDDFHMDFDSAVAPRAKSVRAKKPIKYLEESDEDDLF
Sequence of humaner DNA-Topoisomerase II (P11388 whole entry): as above

O=C(Nc1ccc2ncccc2c1)C(=S)c1cn(Cc2ccc(Cl)cc2)c2ccccc12 [Verbindung 11, 2-[1-(4-Chlor-benzyl)-1H-indol-3-yl]-N-chinolin-6-yl-2-thioxo-acetamid]
Hemmung der Tubulin-Polymerisation, EC50 (Rindertubulin; tubulin with 30% associated proteins (MAPs), mean of two independent experiments): 0.97 µg/mL
Hemmwirkung auf die Polymerisation von Tubulin (Rindertubulin): sehr potente Hemmwirkung

Cc1ccc2cc(NC(=O)C(=O)c3cn(Cc4ccc(Cl)cc4)c4ccccc34)ccc2n1 [Verbindung 9, 2-[1-(4-Chlor-benzyl)-1H-indol-3-yl]-N-(2-methyl-chinolin-6-yl)-2-oxo-acetamid]
Hemmwirkung auf die Polymerisation von Tubulin (Rindertubulin): sehr potente Hemmwirkung

O=C(Nc1ccc2ncccc2c1)C(=O)c1cn(Cc2ccc(Cl)cc2)c2ccccc12 [Verbindung 10, 2-[1-(4-Chlor-benzyl)-1H-indol-3-yl]-2-oxo-N-chinolin-6-yl-acetamid]
Optimale T/C % (Tag) (Mamma, MAXF857; day 10): 6.5% (10)
Todesfällen (Mamma, MAXF857): 2/6
Todesfällen (Mamma, MAXF857; listed as 10 (V)): 2/6 Mäuse tot
Optimale T/C % (Tag) (Melanom, MEXF462; 55 mg/kg p.o., day 14): 0.8% (14)
Todesfällen (Melanom, MEXF462; 55 mg/kg p.o.): 2/6 Mäuse tot
Optimale T/C % (Tag) (Melanom, MEXF462; 70 mg/kg p.o., day 7): 2.3% (7)
Todesfällen (Melanom, MEXF462; 70 mg/kg p.o.): 5/6 Mäuse tot

O=C(Nc1ccncc1)C(=O)c1cn(Cc2ccc(Cl)cc2)c2ccccc12 [Verbindung 14, 2-[1-(4-Chlor-benzyl)-1H-indol-3-yl]-2-oxo-N-pyridin-4-yl-acetamid]
EC50 (KB/HeLa Zellen; HeLa, 24 h): > 1000 nM
Optimale T/C % (Tag) (Melanom, MEXF462; 16 mg/kg p.o., day 18): 0.7% (18)
Todesfällen (Melanom, MEXF462; 16 mg/kg p.o.): 3/5 Mäuse tot
Optimale T/C % (Tag) (Melanom, MEXF462; 32 mg/kg p.o., day 7): 14.6% (7)
Todesfällen (Melanom, MEXF462; 32 mg/kg p.o.): 3/5 Mäuse tot

O=C(Nc1cccc2cccnc12)C(=O)c1cn(Cc2ccc(Cl)cc2)c2ccccc12 [Verbindung 12, 2-[1-(4-Chlor-benzyl)-1H-indol-3-yl]-2-oxo-N-chinolin-8-yl-acetamid]
EC50 [1]: > 3.16 µg/mL
EC50 [2]: > 3.16 µg/mL
EC50 [3]: > 3.16 µg/mL
EC50 [4]: > 3.16 µg/mL
EC50 (Rindertubulin; [7]): > 10 µM
Hemmwirkung auf die Polymerisation von Tubulin (Rindertubulin): keinen Effekt

O=C(Nc1cccc2cnccc12)C(=O)c1cn(Cc2ccc(Cl)cc2)c2ccccc12 [Verbindung 13, 2-[1-(4-Chlor-benzyl)-1H-indol-3-yl]-N-isochinolin-5-yl-2-oxo-acetamid]
EC50 [1]: > 3.16 µg/mL
EC50 [2]: > 3.16 µg/mL
EC50 [3]: > 3.16 µg/mL
EC50 [4]: > 3.16 µg/mL
EC50 (Rindertubulin; [7]): > 10 µM
Hemmwirkung auf die Polymerisation von Tubulin (Rindertubulin): keinen Effekt

CC[C@]1(O)C[C@H]2CN(CCc3c([nH]c4ccccc34)[C@@](C(=O)OC)(c3cc4c(cc3OC)N(C=O)[C@H]3[C@@](O)(C(=O)OC)[C@H](OC(C)=O)[C@]5(CC)C=CCN6CC[C@]43[C@@H]65)C2)C1 [Vincristine]
Hemmung der Topoisomerase II (Inhibierung der pRYG Relaxation) (human Topoisomerase II): keine inhibitorischen Effekte
Hemmung der Topoisomerase II (Inhibierung der Decatenation von kDNA) [5]: keine inhibitorischen Effekte

CC(=O)O[C@H]1C(=O)[C@@]2(C)[C@H]([C@H](OC(=O)c3ccccc3)[C@]3(O)C[C@H](OC(=O)[C@H](O)[C@@H](NC(=O)c4ccccc4)c4ccccc4)C(C)=C1C3(C)C)[C@]1(OC(C)=O)CO[C@@H]1C[C@@H]2O [Paclitaxel]
Hemmung der Topoisomerase II (Inhibierung der pRYG Relaxation) (human Topoisomerase II): keine inhibitorischen Effekte
Hemmung der Topoisomerase II (Inhibierung der Decatenation von kDNA) [5]: keine inhibitorischen Effekte

O=C(Nc1ccc2[nH]ncc2c1)C(=O)c1cn(Cc2ccc(Cl)cc2)c2ccccc12 [Verbindung 4, 2-[1-(4-Chlor-benzyl)-1H-indol-3-yl]-N-(1H-indazol-5-yl)-2-oxo-acetamid]
EC50 (LT12/mdr): 0.093 µg/mL (≈ 0.217 µM)
EC50 [6]: 0.231 µg/mL (≈ 0.539 µM)
EC50 (L1210VCR): 0.241 µg/mL (≈ 0.562 µM)
EC50 (KB/HeLa Zellen; KB/HeLa cells, 0.1-1000 nM, 24 h at 37°C): 252 nM
Hemmwirkung auf die Polymerisation von Tubulin (Rindertubulin): sehr potente Hemmwirkung

Cc1ccc2cccc(NC(=O)C(=O)c3cn(Cc4ccc(F)cc4)c4ccccc34)c2n1 [Verbindung 15, 2-[1-(4-Fluor-benzyl)-1H-indol-3-yl]-N-(2-methyl-chinolin-8-yl)-2-oxo-acetamid]
EC50 [2]: > 3.16 µg/mL
EC50 [3]: > 3.16 µg/mL
EC50 (Rindertubulin; [7]): > 10 µM
Hemmwirkung auf die Polymerisation von Tubulin (Rindertubulin): keinen Effekt
